Laboratory results published in US20230278266A1, “MICRONEEDLE ARRAYS FORMED FROM POLYMER FILMS” (TransDerm, Inc., priority 2007, published 2023).

Test system: fresh human skin explant
Test: Gentian violet delivery into excised human skin explant by loaded microneedle array
Assay type: in vitro ADME
Conditions: human skin explant from abdominoplasty, red fluorescence filters
Excerpt: FIGS. 3A and 3B show cross-sections of excised human skin showing penetration by needles loaded with gentian violet. […] The sample was sectioned at an angle nearly parallel to the needle array geometry, allowing observation of multiple needles. The delivery device backing material is visible as a layer between the OCT and the skin sample. The left needle is itself cross-sectioned, showing the gentian violet solution loaded into the needle shaft. The middle needle appears to penetrate both the stratum corneum and the epidermis, with the needle tip in full contact with the dermis. A third needle (on the right) is visible but is out of the focal plane. […] The Gentian violet was detected using a fluorescent microscope under red fluorescence filters (excitation 546 nm; emission 580 nm). The skin section was stained with DAPI to allow nuclei visualization.
A microneedle array in the transdermal delivery device loaded with gentian violet solution was applied to fresh human skin explant (resulting from abdominoplasty procedure) and immediately placed into tissue freezing medium (OCT) and frozen to -28° C. The sample was sectioned at an angle nearly parallel to the needle array geometry, and multiple needles were observed (FIG. 3). In FIG. 3, the microneedle array transdermal delivery device backing material is visible as a layer between the OCT and the skin sample. […]

skin layer reached, fluorescence microscopy of skin section: delivered to human epidermis and dermis
Structure (SMILES): CN(C)c1ccc(C(=C2C=CC(=[N+](C)C)C=C2)c2ccc(N(C)C)cc2)cc1 [gentian violet]
